Broadly, the IC50 is the point on the concentration scale where inhibition reaches its midpoint.

Structures are written as SMILES. Structures can show the parent of a compound that is named as a salt. Where only a bound is given, the exact number is not on record here.

The assay concerns the target LC3B (Homo sapiens, UniProt Q9GZQ8). As to the kind of experiment: Fluorescence Polarization (FP) Assay: displacement of FITC-labeled peptide from GST-LC3B. Format: binding. Particulars: Fluorescence Polarization assay; GST-LC3B 180 nM, FITC-labeled peptide 18 nM, 25° C.; read-out: IC50. As to the method:
The compounds of the present invention for regulating the autophagy-related protein LC3B were tested by Fluorescence Polarization (FP) Assay.
Fluorescence Polarization (FP) Assay Test
A general note: Polarisation of emitted light reports the rotation of a fluorescent probe.
For `O=C1CC(c2c[nH]c3cccc(Cl)c23)CC(=O)C1=CNCCN1CCN(CCO)CC1` (stereo not drawn) [Compound 394, 5-(4-chloro-1H-indol-3-yl)-2-(((2-(4-(2-ethoxyl)piperazin-1-yl)ethyl)amino)methylene) cyclohexane-1,3-dione], the half-inhibitory concentration (IC50) is under 3 µM.
The same measure for `O=C1CC(c2cccc(F)c2F)CC(=O)C1=CO` (stereo not drawn) [Compound 417, 2-(hydroxymethylene)-5-(2,3-difluorophenyl)cyclo-hexane-1,3-dione]: under 3 µM; for `O=C1CC(c2ccccc2)CC(=O)C1=CNC1CCCNC1` (stereo not drawn) [Compound 141, 5-phenyl-2-((piperidin-3-ylamino)methylene) cyclohexane-1,3-dione hydrochloride]: 3 to 15 µM; for `O=C1CC(c2ccc([N+](=O)[O-])cc2)CC(=O)C1=CO` (stereo not drawn) [Compound 436, 2-(hydroxymethylene)-5-(4-nitrophenyl)cyclo-hexane-1,3-dione]: 3 to 15 µM.
Then `COc1ccc(CN2CC(=O)C(=CNCCN3CCN(CCO)CC3)C(=O)C2)cc1` [Compound 102, 4-(((2-(4-(2-hydroxyethyl)piperazin-1-yl)ethyl)amino)methylene)-1-(4-methoxybenzyl)piperidine-3,5-dione], with 15 to 100 µM; and `O=C1CN(C(=O)c2ccccc2)CC(=O)C1=CNCCN1CCN(CCO)CC1` [Compound 104, 1-benzoyl-4-(((2-(4-(2-hydroxyethyl)piperazin-1-yl)ethyl)amino)methylene)-piperidine-3,5-dione], with 15 to 100 µM.
The same measure for `Cc1ccc(C2CC(=O)C(=CNCCN3CCN(CCO)CC3)C(=O)C2)c(Br)c1` (stereo not drawn) [Compound 329, 5-(2-bromo-4-methylphenyl)-2-(((2-(4-(2-hydroxyethyl)piperazin-1-yl)ethyl)amino)methylene) cyclohexane-1,3-dione]: under 3 µM; for `O=C1CC(c2cccc3[nH]ccc23)CC(=O)C1=CO` (stereo not drawn) [Compound 429, 2-(hydroxymethylene)-5-(1H-indol-4-yl)cyclohexane-1,3-dione]: under 3 µM.
`O=C1CC(c2ccc(OC(F)(F)F)cc2)CC(=O)C1=CNCCN1CCN(CCO)CC1` (stereo not drawn) [Compound 50, 2-(((2-(4-(2-hydroxyethyl)piperazin-1-yl)ethyl)amino)methylene)-5-(4-(trifluoromethoxy)phenyl) cyclohexane-1,3-dione]: the IC50 was under 3 µM.
Then `O=C1CC(C2CCNCC2)CC(=O)C1=CNCCN1CCN(CCO)CC1` (stereo not drawn) [Compound 70, 2-(((2-(4-(2-hydroxyethyl)piperazin-1-yl)ethyl)amino)methylene)-5-(piperidin-4-yl) cyclohexane-1,3-dione HCl salt], with 100 to 1000 µM.
The same measure for `O=C1CC(c2ccc(-n3ccnc3)cc2)CC(=O)C1=CNCCN1CCN(CCO)CC1` (stereo not drawn) [Compound 87, 5-(4-(1H-imidazol-1-yl)phenyl)-2-(((2-(4-(2-hydroxyethyl)piperazin-1-yl)ethyl)amino)methylene) cyclohexane-1,3-dione]: 15 to 100 µM; for `C[C@H](NC=C1C(=O)CC(c2ccccc2)CC1=O)C(=O)OCc1ccccc1` (stereo partly drawn) [Compound 122, benzyl ((2,6-dioxo-4-phenylcyclo-hexylidene)methyl)-L-alaninate]: 100 to 1000 µM.
Then `CN(C)CCNC=C1C(=O)CC(c2ccc(-c3ccccc3)s2)CC1=O` (stereo not drawn) [Compound 367, 2-(((2-(dimethylamino)ethyl)amino)methylene)-5-(5-phenylthiophen-2-yl)cyclohexane-1,3-dione], with under 3 µM.
Consider `O=C1CC(c2ccccc2)CC(=O)C1=CNCCN1CCN(CCO)CC1` (stereo not drawn) [Compound 8, 2-(((2-(4-(2-hydroxyethyl)piperazin-1-yl)ethyl)amino)methylene)-5-phenylcyclohexane-1,3-dione], for which the IC50 is under 3 µM.
Then `C[C@H](NC=C1C(=O)CC(c2ccccc2)CC1=O)C(=O)O` (stereo partly drawn) [Compound 121, ((2,6-dioxo-4-phenylcyclo-hexylidene)methyl)-L-alanine], with 15 to 100 µM.
